Series [1] concerns the target Nsp3b (SARS-CoV-2 macrodomain) (Severe acute respiratory syndrome coronavirus 2, UniProt P0DTD1). Nature of the series: biochemical. The class given is binding.
The subject of another series is CHIKV (OPY1). Put plainly: microbe, parasite or virus in culture. To be noted: Chikungunya virus, Vero C1008, 48 h. It counts as cell-based.
The target in series [2] is T1, Nsp3b (Severe acute respiratory syndrome coronavirus 2, UniProt P0DTD1). The class given is biochemical, SARS-CoV-2.
Series [3] deals with T2, CHIKV macrodomain (Chikungunya virus, UniProt Q8JUX6). To be noted: cited from earlier work.
T2 sequence (Q8JUX6 1334-1493 limits assumed): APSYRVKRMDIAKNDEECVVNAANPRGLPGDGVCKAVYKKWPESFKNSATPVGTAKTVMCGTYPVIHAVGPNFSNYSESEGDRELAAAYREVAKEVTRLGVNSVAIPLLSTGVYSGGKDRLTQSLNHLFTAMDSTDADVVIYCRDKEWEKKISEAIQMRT
In series [4] the target is T1, Nsp3b. It counts as binding, SARS-CoV-2.
In a further series the target is SARS-CoV macrodomain (Severe acute respiratory syndrome coronavirus, UniProt P0C6X7). Put plainly: biochemical. It counts as binding.
Series [5] addresses T3, MERS-CoV macrodomain (Middle East respiratory syndrome-related coronavirus, UniProt K9N7C7). Nature of the series: biochemical. The class given is binding.
The target in series [6] is Rubella virus (RuV) macrodomain (Rubella virus, UniProt Q86500). The class given is binding.
Sequence of Rubella virus (RuV) macrodomain (Q86500 806-985 limits assumed): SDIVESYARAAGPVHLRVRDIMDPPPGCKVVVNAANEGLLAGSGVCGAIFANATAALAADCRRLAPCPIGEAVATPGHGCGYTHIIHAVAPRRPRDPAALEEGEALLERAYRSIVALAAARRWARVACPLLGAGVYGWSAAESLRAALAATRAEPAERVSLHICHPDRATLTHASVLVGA
In series [7] the target is T2, CHIKV macrodomain. The class given is binding.
In another series the target is hMacroD2 (Homo sapiens, UniProt A1Z1Q3). The class given is binding.
Sequence of hMacroD2 (A1Z1Q3 7-243): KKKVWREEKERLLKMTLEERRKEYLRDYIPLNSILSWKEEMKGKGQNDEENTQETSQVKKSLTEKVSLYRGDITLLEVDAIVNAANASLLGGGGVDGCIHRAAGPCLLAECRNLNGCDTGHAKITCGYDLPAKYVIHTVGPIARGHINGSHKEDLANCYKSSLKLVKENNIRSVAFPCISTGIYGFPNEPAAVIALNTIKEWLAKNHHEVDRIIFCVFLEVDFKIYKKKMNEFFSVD
Series [8] deals with T3, MERS-CoV macrodomain. The class given is biochemical.
Another series has as its system SARS-CoV-2 B.1. Nature of the series: microbe, parasite or virus in culture. It counts as cell-based. The note with it: for EC50: Severe acute respiratory syndrome coronavirus 2, VeroE6/TMPRSS2, 48 h.
A short description of series [9]: in vitro. The note with it: African green monkey.
Series [10] in a line: in vitro. The note with it: African green monkey. The source holds these as a separate data set.
The subject of series [11] is Nsp3b. The note with it: cited from earlier work.

Where “and” joins values, the source holds several entries; their conditions need not be identical. Equal entries are not always repeated. Entries after “also recorded” stand apart in the source; their conditions may differ. Bounds are passed on as bounds.

T3 sequence (K9N7C7 1110-1276 limits assumed): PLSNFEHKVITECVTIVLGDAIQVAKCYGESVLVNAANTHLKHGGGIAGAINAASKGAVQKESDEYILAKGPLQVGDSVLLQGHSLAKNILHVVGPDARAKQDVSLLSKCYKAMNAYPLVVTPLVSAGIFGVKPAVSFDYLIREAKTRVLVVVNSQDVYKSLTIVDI

What is called Kd is the concentration at which binding is half-saturated. As for `Nc1ncnc2c1ncn2[C@@H]1O[C@H](COP(=O)(O)OP(=O)(O)O)[C@@H](O)[C@H]1O` [ADP], the dissociation constant (Kd) in [1] was > 10000 µM.

Molecule `Nc1ncnc2c1ncn2[C@@H]1O[C@H](COP(=O)(O)O)[C@@H](O)[C@H]1O` [AMP] showed a Kd in series [1] of 1900 to 2500 µM.

The molecule `Nc1ncnc2c1ncn2[C@@H]1O[C@H](COP(=O)(O)OP(=O)(O)NP(=O)(O)O)[C@@H](O)[C@H]1O` [APPNHP] registered a dissociation constant (Kd) in series [1] of 1900 to 2500 µM.

For `Nc1ncnc2c1ncn2[C@@H]1O[C@H](COP(=O)(O)OP(=O)(O)OP(=O)(O)O)[C@@H](O)[C@H]1O` [ATP], the Kd in series [1] lay within 1900 to 2500 µM.

As a reminder, the EC50 is the concentration giving half of the maximal effect. As to `NC(=O)c1nc(F)c[nH]c1=O` [Favipiravir, reference compound], the EC50 with CHIKV (OPY1) came to 11.3 µM.

With `N#C[C@@]1(c2ccc3c(N)ncnn23)O[C@H](CO)[C@@H](O)[C@H]1O` [GS‐441524], the “reduction of the k value versus free macrodomain” value at Nsp3b [2] was found to be 33%. Further, the “interaction with CHIKV macrodomain” value on CHIKV macrodomain [3] is reported as “no significant interaction; also recorded: does not bind detectably”.

In the case of `N#C[C@@]1(c2ccc3c(N)ncnn23)O[C@H](COP(=O)(O)O)[C@@H](O)[C@H]1O` [RMP], in series [1], the dissociation constant Kd was ~10 µM.

As usually defined, the pKa is the pH at which an ionisable group is half protonated. On to `N#C[C@@]1(c2ccc3c(N)ncnn23)O[C@H](COS(N)(=O)=O)[C@@H](O)[C@H]1O` [compound 3], for which the results for the ΔG on Nsp3b [4], on SARS-CoV macrodomain and on MERS-CoV macrodomain [5] were −8.28 kcal mol^–1, −7.52 kcal mol^–1 and −5.43 kcal mol^–1, respectively. Also, the ΔH is −12.00 ± 0.07 and −12.00 kcal mol^–1 and −12.00 and −12.0 ± 0.07 kcal mol^–1 at Nsp3b [4]; −12.5 ± 0.3 kcal mol^–1 at SARS-CoV macrodomain. Besides, on Nsp3b [4], the “ΔH compared to GS-441524” value is given as “–6.75 kcal mol^−1”. Also, the “−TΔS” value turned out to be 3.71 kcal mol^–1 on Nsp3b [4] and 4.96 kcal mol^–1 at SARS-CoV macrodomain. Besides, the Kd on SARS-CoV macrodomain (K D) was 3 µM and 3.08 µM; on MERS-CoV macrodomain [5], 104 ± 13 µM. The “interaction by ITC” value in series [6] was “no interaction was observed”; at CHIKV macrodomain [7], “no interaction was observed”; on hMacroD2, “no interaction was observed; also recorded: no binding was observed”. Also, the “reduction of the k value versus free macrodomain” value at Nsp3b [2] was 47%; on MERS-CoV macrodomain [8] it was 16% and ≈ 16%. Moreover, the “inhibition of SARS-CoV-2” value with SARS-CoV-2 B.1 is on record as “no measurable inhibition”. In addition, the EC50 in the series with SARS-CoV-2 B.1 is > 40 µM; with CHIKV (OPY1) it was 21.8 µM. Also, the pKa in “physchem” was 9.37 ± 0.02. In addition, the CC50 in the series “in vitro [9]” and in the series “in vitro [10]” was > 40 µM each time.

In the case of `CCC(CC)COC(=O)[C@H](C)N[P@](=O)(OC[C@H]1O[C@@](C#N)(c2ccc3c(N)ncnn23)[C@H](O)[C@@H]1O)Oc1ccccc1` [remdesivir, reference compound], a half-maximal effect in the series with SARS-CoV-2 B.1 (EC50) was put at 5.48 µM.

Regarding ADP‐ribose [ADPr, reference compound], the “reduction of the k value versus free macrodomain” value on MERS-CoV macrodomain [8] is 32% and ≈ 32%.

What is called IC50 is the midpoint of a concentration-inhibition curve. Consider α‐azido‐ADPr, for which, in the series on Nsp3b [11], the IC50 is 0.49 µM.

On to β‐O‐methyl‐ADPr, for which, in the series on Nsp3b [11], the concentration for half-maximal inhibition (IC50) was 127 µM.

Source of the values: article PMC12666239 (Chembiochem, 2025).
